In PubChem BioAssay (NCI):
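Briefly, cells in 96-well plates were exposed to five compound concentrations for 48 h, and endpoints were estimated by linear interpolation. At the GI50, growth is halved. TGI is the concentration that stops growth completely.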

Columns and labels:
Experiment in all cases: NCI tumour cell line growth inhibition, 48 h
COLO 205 colon = system: COLO 205 colon
EKVX NSCLC = system: EKVX NSCLC
HCT-15 colon = system: HCT-15 colon
LOX IMVI melanoma = system: LOX IMVI melanoma
NCI-H460 lung = system: NCI-H460 lung
NCI/ADR-RES ovarian = system: NCI/ADR-RES ovarian
OVCAR-8 ovarian = system: OVCAR-8 ovarian
SK-MEL-2 melanoma = system: SK-MEL-2 melanoma
SNB-75 CNS = system: SNB-75 CNS
TK-10 renal = system: TK-10 renal

SMILES	GI50 (COLO 205 colon) [µM]	TGI (COLO 205 colon) [µM]	GI50 (EKVX NSCLC) [µM]	TGI (EKVX NSCLC) [µM]	GI50 (HCT-15 colon) [µM]	TGI (HCT-15 colon) [µM]	GI50 (LOX IMVI melanoma) [µM]	TGI (LOX IMVI melanoma) [µM]	GI50 (NCI-H460 lung) [µM]	TGI (NCI-H460 lung) [µM]	GI50 (NCI/ADR-RES ovarian) [µM]	TGI (NCI/ADR-RES ovarian) [µM]	GI50 (OVCAR-8 ovarian) [µM]	TGI (OVCAR-8 ovarian) [µM]	GI50 (SK-MEL-2 melanoma) [µM]	TGI (SK-MEL-2 melanoma) [µM]	GI50 (SNB-75 CNS) [µM]	TGI (SNB-75 CNS) [µM]	GI50 (TK-10 renal) [µM]	TGI (TK-10 renal) [µM]
O=C(Nc1ccc(Cl)cc1)c1cc2ccccc2cc1O	3.22	18.7	2.98	> 100	3.1	> 100	2.36	18.2	2.67	> 100	2.81	> 100	3.67	> 100	2.87	13.1	22.2	> 100	3.93	> 100
Cn1c(=O)c2[nH]c(CS(=O)(=O)Cc3nc4c([nH]3)c(=O)n(C)c(=O)n4C)nc2n(C)c1=O		> 100		> 100		> 100		> 100		> 100		> 100		> 100		> 100		> 100		> 100
Cc1[nH]c(/C=C2\C(=O)Nc3ccc(F)cc32)c(C)c1C(=O)NC[C@H](O)CN1CCOCC1	3.41	> 10	8.02	> 10	2.83	> 10	2.33	> 10	2.39	> 10	> 10	> 10	5.41	> 10	2.16	8.68	7.33	> 10	5.37	> 10
CCN(CC)CCOc1ccc(/C=C2\CC3C4CC=C5C[C@@H](N6CCCC6)CC[C@]5(C)C4CC[C@]3(C)[C@H]2O)cc1OC (stereo not given in full)	5.4	23	12.9	> 77.4	3.45	22.4	1.92	5.28	14.2	65.7	13.3	47.5	5.16	> 40.8	9.64	> 100	14.6	> 69.4	9.64	37.2
O=[N+]([O-])/C=C/c1c[nH]c2ccccc12	15.6	30.6	19.3	45.1	18.2	45.7	15.9	30.2	17	46.3	18.4	40	21.6	49.4	18.6	37.8	4.45	16.3	16.8	30.7
C=C1C(=O)OC2CC3(CO3)C3C(O)C(O)CC3(C)CC12 (stereo not given)		81.2		37.2		34.1		23.5		> 100		> 100		45.3		38.4		> 100		> 100
O=C(Nc1ncc(Cc2ccccc2Cl)s1)c1ccc2c(c1)OCCO2	0.318	3.55	0.663	> 100	0.119	> 100	0.583	> 100	0.352	> 44.1	0.322	22.2	0.479	> 100	0.667	> 69.6	0.262	6.55	0.672	> 40
O=C1c2ccccc2-c2c1c1ccccc1c(=O)n2CCCN1CCOCC1	> 100	> 100	22.7	76.4	21.8	> 100	8.87	62.1	20	> 100	18.2	> 100	7.26	> 75.2	19.5	50.7	2.98	> 27.7	12.1	31.9
O=C(NC(=S)Nc1ccc(Cl)cc1)c1ccccc1	> 100	> 100	> 100	> 100	> 100	> 100	> 100	> 100	> 100	> 100	> 100	> 100	> 100	> 100	> 100	> 100	> 49.7	> 100	> 100	> 100
C=C1C(=O)O[C@H]2[C@H]1CC/C(Cn1cc(-c3ccccc3)nn1)=C\CC[C@@]1(C)O[C@@H]21	1.08	2.36	6.87	13.3	0.769	1.68	0.808	1.69	7.74	23.3	6.17	13.7	2.31	8.88	5.5	12.5	6.21	13	1.21	4.53
O=C1OC(=O)C2C1C1(c3ccccc3)C(c3ccccc3)=C(c3ccccc3)C2(c2ccccc2)S1=O (stereo not given)	> 100	> 100	> 100	> 100	> 100	> 100	> 100	> 100	> 100	> 100	> 100	> 100	> 100	> 100	> 100	> 100	> 100	> 100	> 100	> 100
